Test results as given in PubChem BioAssay (NCI).
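The compound was tested at five concentrations on cells cultured in 96-well plates, with a 48-hour exposure period. TGI: total growth inhibition.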

What was measured:
Test in all cases: growth of human tumour cells (NCI), 48 h
786-0 renal = test system: 786-0 renal
A498 renal = test system: A498 renal
A549 NSCLC = test system: A549 NSCLC
ACHN renal = test system: ACHN renal
BT-549 breast = test system: BT-549 breast
CAKI-1 renal = test system: CAKI-1 renal
CCRF-CEM leukemia = test system: CCRF-CEM leukemia
COLO 205 colon = test system: COLO 205 colon
DU-145 prostate = test system: DU-145 prostate
EKVX NSCLC = test system: EKVX NSCLC
HCC-2998 colon = test system: HCC-2998 colon
HCT-116 colon = test system: HCT-116 colon
HCT-15 colon = test system: HCT-15 colon
HL-60(TB) leukemia = test system: HL-60(TB) leukemia
HOP-62 NSCLC = test system: HOP-62 NSCLC
HOP-92 NSCLC = test system: HOP-92 NSCLC
HS 578T breast = test system: HS 578T breast
HT29 colon = test system: HT29 colon
IGROV1 ovarian = test system: IGROV1 ovarian
K-562 leukemia = test system: K-562 leukemia
KM12 colon = test system: KM12 colon
LOX IMVI melanoma = test system: LOX IMVI melanoma
M14 melanoma = test system: M14 melanoma
MALME-3M melanoma = test system: MALME-3M melanoma
MCF7 breast = test system: MCF7 breast
MDA-MB-231 breast = test system: MDA-MB-231 breast
MDA-MB-435 = test system: MDA-MB-435
MDA-N = test system: MDA-N
MOLT-4 leukemia = test system: MOLT-4 leukemia
NCI-H226 lung = test system: NCI-H226 lung
NCI-H23 lung = test system: NCI-H23 lung
NCI-H460 lung = test system: NCI-H460 lung
NCI-H522 lung = test system: NCI-H522 lung
NCI/ADR-RES ovarian = test system: NCI/ADR-RES ovarian
OVCAR-3 ovarian = test system: OVCAR-3 ovarian
OVCAR-4 ovarian = test system: OVCAR-4 ovarian
OVCAR-5 ovarian = test system: OVCAR-5 ovarian
OVCAR-8 ovarian = test system: OVCAR-8 ovarian
PC-3 prostate = test system: PC-3 prostate
RPMI-8226 leukemia = test system: RPMI-8226 leukemia
RXF 393 renal = test system: RXF 393 renal
SF-268 CNS = test system: SF-268 CNS
SF-295 CNS = test system: SF-295 CNS
SF-539 CNS = test system: SF-539 CNS
SK-MEL-2 melanoma = test system: SK-MEL-2 melanoma
SK-MEL-5 melanoma = test system: SK-MEL-5 melanoma
SK-OV-3 ovarian = test system: SK-OV-3 ovarian
SN12C renal = test system: SN12C renal
SNB-19 CNS = test system: SNB-19 CNS
SNB-75 CNS = test system: SNB-75 CNS
SR leukemia = test system: SR leukemia
SW-620 colon = test system: SW-620 colon
T-47D breast = test system: T-47D breast
TK-10 renal = test system: TK-10 renal
U251 CNS = test system: U251 CNS
UACC-257 melanoma = test system: UACC-257 melanoma
UACC-62 melanoma = test system: UACC-62 melanoma

Measured: TGI

Cc1cc(O)c2c(c1O)C(=O)c1c(O)ccc(O)c1C2=O
> 100 µM: all assays above
